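GI50 = concentration required for 50% inhibition of growth. TGI is the concentration that stops growth completely.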
Experiments:
Test in all cases: DTP human tumour cell line panel, 384-well format
OVCAR-8 ovarian = test system: OVCAR-8 ovarian
DU-145 prostate = test system: DU-145 prostate
COLO 205 colon = test system: COLO 205 colon
MDA-MB-468 breast = test system: MDA-MB-468 breast
SF-295 CNS = test system: SF-295 CNS
UACC-62 melanoma = test system: UACC-62 melanoma
UO-31 renal = test system: UO-31 renal
SW-620 colon = test system: SW-620 colon
HOP-92 NSCLC = test system: HOP-92 NSCLC
HS 578T breast = test system: HS 578T breast
UACC-257 melanoma = test system: UACC-257 melanoma
K-562 leukemia = test system: K-562 leukemia
MALME-3M melanoma = test system: MALME-3M melanoma
OVCAR-5 ovarian = test system: OVCAR-5 ovarian
A549 NSCLC = test system: A549 NSCLC
HT29 colon = test system: HT29 colon
SNB-19 CNS = test system: SNB-19 CNS
HCC-2998 colon = test system: HCC-2998 colon
NCI-H322M lung = test system: NCI-H322M lung
NCI-H522 lung = test system: NCI-H522 lung
RXF 393 renal = test system: RXF 393 renal
SK-OV-3 ovarian = test system: SK-OV-3 ovarian
OVCAR-3 ovarian = test system: OVCAR-3 ovarian
PC-3 prostate = test system: PC-3 prostate
NCI-H460 NSCLC = test system: NCI-H460 NSCLC
OVCAR-4 ovarian = test system: OVCAR-4 ovarian
SK-MEL-28 melanoma = test system: SK-MEL-28 melanoma
NCI-H23 lung = test system: NCI-H23 lung
HOP-62 NSCLC = test system: HOP-62 NSCLC

Compound `CCOC(=O)C(Cc1ccc(CCCC(=O)NCCC(=O)Nc2ccc3nc(C)sc3c2)cc1)C(=O)OCC` has a GI50 (OVCAR-8 ovarian) of 18.1 µM, a TGI (OVCAR-8 ovarian) of 32 µM and a GI50 (DU-145 prostate) of 19.8 µM. It also gave a TGI (DU-145 prostate) of 34.9 µM, a GI50 (COLO 205 colon) of 21.1 µM and a TGI (COLO 205 colon) of 40.3 µM. For the same compound, the GI50 (MDA-MB-468 breast) was 12 µM, the TGI (MDA-MB-468 breast) was 25.6 µM and the GI50 (SF-295 CNS) was 35.4 µM. The TGI (SF-295 CNS) was greater than 100 µM, the GI50 (UACC-62 melanoma) was 19.1 µM and the TGI (UACC-62 melanoma) was 33.6 µM. The GI50 (UO-31 renal) was 22.9 µM, the TGI (UO-31 renal) was 48.7 µM and the GI50 (SW-620 colon) was 55.2 µM. For the same compound, the TGI (SW-620 colon) was greater than 100 µM, the GI50 (HOP-92 NSCLC) was 25.8 µM and the TGI (HOP-92 NSCLC) was 68.2 µM. The GI50 (HS 578T breast) was 19.8 µM, the TGI (HS 578T breast) was 34.5 µM and the GI50 (UACC-257 melanoma) was 19 µM. It also gave a TGI (UACC-257 melanoma) of 33.1 µM, a GI50 (K-562 leukemia) of 14 µM and a TGI (K-562 leukemia) of 33.6 µM. For the same compound, the GI50 (MALME-3M melanoma) was 22.5 µM, the TGI (MALME-3M melanoma) was 45.7 µM and the GI50 (OVCAR-5 ovarian) was greater than 100 µM. The TGI (OVCAR-5 ovarian) was greater than 100 µM, the GI50 (A549 NSCLC) was 23.3 µM and the TGI (A549 NSCLC) was 59.1 µM. For the same compound, the GI50 (HT29 colon) was 21.3 µM, the TGI (HT29 colon) was 42.5 µM and the GI50 (SNB-19 CNS) was 63.1 µM. For the same compound, the TGI (SNB-19 CNS) was greater than 100 µM, the GI50 (HCC-2998 colon) was 10.2 µM and the TGI (HCC-2998 colon) was 35.6 µM. The GI50 (NCI-H322M lung) was 19.4 µM, the TGI (NCI-H322M lung) was 38.3 µM and the GI50 (NCI-H522 lung) was 20.5 µM. It also gave a TGI (NCI-H522 lung) of 37.1 µM, a GI50 (RXF 393 renal) of 21.8 µM and a TGI (RXF 393 renal) of 48.3 µM. It also gave a GI50 (SK-OV-3 ovarian) of 22.6 µM, a TGI (SK-OV-3 ovarian) of 46.8 µM and a GI50 (OVCAR-3 ovarian) of 21.9 µM. The TGI (OVCAR-3 ovarian) was 40.4 µM, the GI50 (PC-3 prostate) was 19.4 µM and the TGI (PC-3 prostate) was 33.9 µM. It also gave a GI50 (NCI-H460 NSCLC) of 19.2 µM, a TGI (NCI-H460 NSCLC) of 35.9 µM and a GI50 (OVCAR-4 ovarian) of 32.5 µM. The TGI (OVCAR-4 ovarian) was 72 µM, the GI50 (SK-MEL-28 melanoma) was 26.6 µM and the TGI (SK-MEL-28 melanoma) was 51.7 µM. For the same compound, the GI50 (NCI-H23 lung) was 19.7 µM, the TGI (NCI-H23 lung) was 37.2 µM and the GI50 (HOP-62 NSCLC) was 17.2 µM. It also gave a TGI (HOP-62 NSCLC) of 35.9 µM.

Source: PubChem BioAssay (NCI)
